Laboratory results reported in US20080279812A1, “Disease Prevention and Vaccination Prior to Thymic Reactivation” (Norwood Immunology, Ltd., priority 2003, published 2008).

Experiments:
sex steroid levels [1] = assay: Zoladex before autologous or allogeneic PBSCT (Example 31); assay type: in vivo, human; conditions: implant from day -21 before PBSC infusion
Experimental: Patients are male or female, aged 18 years or older that are due to undergo high-dose therapy (HDT) with PBSCT for malignant disease or BM failure. The 10.8 mg implant formulation (for men) of the Zoladex® is dispersed in a cylindrical rod of biodegradable and biocompatible polyglactins and is released continuously over 12 weeks following subcutaneous injection. The 3.6 mg implant (for women) is dispersed in a cylindrical rod of a biodegradable and biocompatible polyglactin and is released continuously over 28 days following subcutaneous injection. The implants are commercially supplied in a purpose-designed applicator with 14-16 gauge needles.
Reduction of sex steroids in the blood to minimal values may take several weeks. Consequently, 21 days prior to PBSC infusion (day 0), patients are injected with the sex steroid ablation therapy in the form of LHRH agonist Zoladex® (implant). For males, 10.8 mg goserelin as a single dose (effective for 3 months) are administered on day −21 with a further injection of 3.6 mg on day 63 (effective for 28 days). For females, 3.6 mg (effective for 28 days) are administered on day −21 and days 7, 35 and 63. […] Other doses may be deemed acceptable as determined readily by those skilled in the art. […]
Thymic function is determined by assessment of T cell subsets by flow cytometry, T cell responses in vitro, and production of TRECs.

[2] = test system: pituitary LH, serum testosterone; conditions: chronic administration, cited from earlier work
sex steroid levels [3] = assay: Sex steroid ablation therapy of a patient with an LHRH agonist (Example 6); assay type: in vivo, human; conditions: single dose effective for 3 months
Experimental: The patient was given sex steroid ablation therapy in the form of delivery of an LHRH agonist. This was given in the form of either Leucrin (depot injection; 22.5 mg) or Zoladex® (implant; 10.8 mg), either one as a single dose effective for 3 months. […] In some cases it is also necessary to deliver a suppresser of adrenal gland production of sex steroids. Cosudex® (5 mg/day or 50 mg/day) may also be given as one tablet per day for the duration of the sex steroid ablation therapy. Alternatively, the patient is given a GnRH antagonist, e.g., Cetrorelix or Abarelix, as a subcutaneous injection

**Q.** With `CC(C)C[C@H](NC(=O)[C@@H](COC(C)(C)C)NC(=O)[C@H](Cc1ccc(O)cc1)NC(=O)[C@H](CO)NC(=O)[C@H](Cc1c[nH]c2ccccc12)NC(=O)[C@H](Cc1cnc[nH]1)NC(=O)[C@@H]1CCC(=O)N1)C(=O)N[C@@H](CCCNC(=N)N)C(=O)N1CCC[C@H]1C(=O)NNC(N)=O` [Zoladex®, goserelin acetate] as the compound, how does the “reduction of sex steroid levels” value (sex steroid levels [1]) read?
**A.** effective in reducing sex steroid levels sufficiently to reactivate the thymus

**Q.** What about the “time to sustained suppression of pituitary LH” value ([2]; after initiation of therapy) of the same compound?
**A.** ≤ 3 weeks

**Q.** What about the “serum testosterone levels in males” value [2] of the same compound?
**A.** range normally seen in surgically castrated men

**Q.** What about the “reduction of sex steroid levels” value (sex steroid levels [3]) of the same compound?
**A.** effective in reducing sex steroid levels sufficiently to reactivate the thymus
